Biological target: Rv0888 (SpmT) (Mycobacterium tuberculosis, UniProt P9WKQ1)
Sequence (P9WKQ1 32-490 limits assumed): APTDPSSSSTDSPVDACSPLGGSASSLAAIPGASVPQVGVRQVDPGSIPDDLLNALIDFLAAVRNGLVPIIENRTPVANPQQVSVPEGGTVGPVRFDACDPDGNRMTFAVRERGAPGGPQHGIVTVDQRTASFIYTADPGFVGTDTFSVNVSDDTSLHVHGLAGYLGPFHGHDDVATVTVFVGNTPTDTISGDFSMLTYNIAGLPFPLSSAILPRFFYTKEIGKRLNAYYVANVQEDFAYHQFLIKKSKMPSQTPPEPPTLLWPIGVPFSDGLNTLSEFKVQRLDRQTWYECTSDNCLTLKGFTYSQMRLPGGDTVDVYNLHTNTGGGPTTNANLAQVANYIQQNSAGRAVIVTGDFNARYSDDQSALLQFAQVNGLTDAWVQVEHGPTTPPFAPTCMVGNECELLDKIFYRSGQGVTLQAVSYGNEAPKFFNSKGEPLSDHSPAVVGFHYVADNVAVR

sphingomyelin gave a Km of 671 µM.
